One assay deals with B16-F1 melanoma. The assay is described as follows: Cytotoxicity assay, ATP detection, B16-F1. It counts as cell-based, mouse. Particulars: B16-F1 cells in vitro, read-out: ED50 B16-F1. Here is the method:
(§1) The cytotoxicity tests were performed in 96-well microtiter plates (sterile white plates with clear bottom, Corning Costar Corporation, Cambridge, Mass., USA). The anthracyclines were pipetted into the plates in 10 μl of ethanol, pure ethanol was used for control plates. Daunorubicin and aclarubicin were used as positive controls. When the ethanol had evaporated, the cells were seeded into the plates in 100 μl of appropriate medium. The number of cells seeded per well was 2500 with MES-SA, 3000 with MES-SA/D×5, 3000 with LL/2, 2000 with B16-F0 and B16-F1, 2000 with KLN-205 and 8000 with MLTC-1. The ATP content of the cells was measured after incubating the cells for three days at 37° C. with 5% CO2.
(§2) The growth medium was removed by turning the plates over, and 200 μl of ATP extraction reagent, Somalyze, were added to the wells. The plates were then incubated for 30 minutes at room temperature. The ATP measurement was performed with Luminoskan luminometer (Labsystems Oy, Helsinki, Finland) at 22° C. 20 μl of ATP monitoring reagent containing luciferin and luciferase was dispensed, and an integral measurement of 10 s with 2 s lag time was performed for each well. All reagents used were supplied by Bio-Orbit Oy, Turku, Finland.
(§3) The direct luminometer output (in relative light units, RLUS) was used to calculate the cytotoxic effect. This light signal is directly proportional to the amount of […] in a wide range (determined with Bio-Orbit ATP standard, data not shown). On the other hand, the amount of ATP is directly proportional to the amount of living cells (Kangas et al., 1984). The results are expressed as percentages of the control value of untreated cells. An IC50 value (the drug concentration resulting to an ATP signal of 50% of the untreated control signal) was graphically estimated from the % of control vs. drug concentration plot.
(§4) H075-4a was also tested with several mouse cell lines in vitro (all were purchased from ATCC, Rockville, Md., USA): Lewis lung carcinoma (LL/2) (CRL-1642), B16-F0 melanoma (CRL-6322), B16-F1 melanoma (CRL-6323), KLN-205 lung squamous cell carcinoma (CRL-1453) and MLTC-1 leydig cell tumor (CRL-2065) using daunomycin, aclarubicin and H075-1a (MA 144U1) as references.
(§5) All cells grew as monolayers and were cultured at 37° C. with 5% CO2 according to ATCC standard instructions for each cell line: LL/2 in Dulbecco's modified Eagle's medium with 4.5 g/l glucose and 10% FCS, B16-F0 and B16-F1 in MEM (Eagle) in Earle's BSS with non-essential amino acids and 10% FCS, KLN-205 in MEM (Eagle) in Earle's BSS with non-essential amino acids and 10% FCS, MLTC-1 in RPMI 1640 with 25 mM HEPES and 10% FBS. All media were purchased from Gibco BRL, the serum was Gibco BRL Foetal Bovine Serum. […]

Assay [1] has as its system KLN-205 lung squamous cell carcinoma. The assay is described as follows: Cytotoxicity assay, ATP detection, KLN-205. Particulars: KLN-205 cells in vitro, read-out: ED50 KLN-205. It counts as cell-based, mouse. Here is the method:
as §1, §2, §3, §4, §5

Assay [2] relates to MES-SA/D×5 uterine sarcoma cells (doxorubicin-resistant, MDR). Nature of the assay: Cytotoxicity assay, luminescence ATP detection, MES-SA/D×5. Particulars: MES-SA/D×5 cells, three days incubation, ATP content, highest concentration 10^-5 M, read-out: ED50 (nM) MES-SA/D × 5. It counts as cell-based, human. Here is the method:
The cytotoxicities of the new anthracyclines were tested in vitro with two cell lines: human uterine sarcomas MES-SA (CRL-1976; American Type Culture Collection (ATCC), Rockville, Md., USA) and MES-SA/D×5 (CRL-1977; ATCC, Rockville, Md., USA). MES-SA/D×5 has been developed by growing MES-SA cells in increasing concentrations of doxorubicin (Harker and Sikic, 1985).
Monolayer cultures were grown in McCoy's 5A medium with L-glutamine (Gibco BRL) supplemented with 10% FBS (Foetal Bovine Serum, Gibco BRL). No antibiotics were added. As the resistance is stable for at least 20 passages, the MES-SA/D×5 cells were grown without anthracycline selection (Harker and Sikic, 1985). Cells were maintained at 37° C. with 5% CO2 and subcultured every 3-5 days.
as §1, §2, §3

A further assay deals with P388 leukemia. Nature of the assay: Cytotoxic activity in vivo: P388 leukemia model. Also on record: species or system mice. Particulars: 10^6 P388 cells i.p. day 0. From the text:
P388 leukemia was maintained by serial intraperitoneal (i.p.) transplantations in DBA/2JBom female mice purchased from M & B A/S, Ry, Denmark. The animals were maintained at the facilities of Central Animal Laboratory, University of Turku. The management of the animal unit is based on and followed the guidelines: “European Convention for the protection of Vertebrate Animals used for Experimental and other Scientific Purposes, European Treaty Series No. 123 (EU No. 609/86), Official Journal of European Communities No. L 358, Strasbourg Nov. 24, 1986”, and “The Statute No. 1360/90 of the Finnish Law, Helsinki Dec. 21, 1990: Asetus kokeellisiin ja muihin tieteellisiin tarkoituksiin käytettävien selkärankaisten eläinten suojelemiseksi tehdyn eurooppalaisen yleissopimuksen voimaansaattamisesta. Suomen s{umlaut over (aa)}doskokoelma.”
The in vivo tests were started by injecting 10^6 P388 cells suspended in Dulbecco's phosphate buffered saline i.p. in mice on day 0. Groups of 3 mice were used. The drugs were administered i.p. on day 1 on the basis of individual body weight. The control group received vehicle (10% ethanol in Dulbecco's phosphate buffered saline).

pEC50: −log10 of the molar value. Where two headings read alike, the source gives them in different places.

For the compound `CCC1(O)CC(OC2CC(N(C)C)C(OC3CC(O)C(OC4CC(O)C(O)C(C)O4)C(C)O3)C(C)O2)c2c(O)c3c(c(O)c2C1C(=O)OC)C(=O)c1cccc(O)c1C3=O` (centres unmarked) [Compound H075-4a], the figures for the pEC50 (in the assay with B16-F1 melanoma; in assay [1]) were 8.70 and 8.30, respectively. Besides, the EC50 in assay [2] worked out at 50 nM. Moreover, the “Median survival days (range)” value with P388 leukemia (1 mg/kg i.p. on day 1) is on record as 14 (13-15) days; in the assay with P388 leukemia (2 mg/kg i.p. on day 1) it was 14 (13-16) days; with P388 leukemia (4 mg/kg i.p. on day 1), 15 (13-15) days; in the assay with P388 leukemia (6 mg/kg i.p. on day 1), 15 (15-16) days.

On to `COc1cccc2c1C(=O)c1c(O)c3c(c(O)c1C2=O)C[C@@](O)(C(C)=O)C[C@@H]3O[C@H]1C[C@H](N)[C@H](O)[C@H](C)O1` [Daunorubicin], for which the pEC50 in the assay with B16-F1 melanoma (Mus musculus) was 8.10; in assay [1] (Mus musculus), 7.05. For the same compound, the EC50 in assay [2] (Homo sapiens, 72 h) was 220 nM. The “Median survival days (range)” value in the assay on P388 leukemia (4 mg/kg i.p. on day 1) was 14 (14-16) days.
